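Five compound concentrations were applied to cells in 96-well plates for 48 hours; endpoints were derived by simple linear interpolation of the resulting dose-response curve. TGI is the concentration that stops growth completely.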
Each molecule was assayed on SN12C renal (assay: growth of human tumour cells (NCI), 48 h).

With `CC1(C)[C@@H]2C[C@H]1c1cnc(-c3ccccn3)cc1[C@H]2C(O)[C@@H]1c2cc(-c3ccccn3)ncc2[C@H]2C[C@@H]1C2(C)C` (some centres undefined) as the molecule, how does the TGI read?
Its TGI is 1.89 µM.

For `CCOC(=O)Cc1nn2c(=O)cc(C)nc2s1`, which TGI is on record?
Its TGI is over 100 µM.

With `COP(=O)(CC(=O)C1OC(OCc2ccccc2)C(OCc2ccccc2)C(OCc2ccccc2)C1OCc1ccccc1)OC` (centres undefined) as the molecule, how does the TGI read?
Its TGI is 11.2 µM.

With `CCOC1NC(=O)c2ccccc21` (centres undefined) as the molecule, how does the TGI read?
Its TGI is over 100 µM.

`CCN(C(=O)N[C@H](C(=O)N[C@@H](C)C(=O)OC)C(C)C)c1ccccc1` was tested. Which TGI did it give?
The TGI was over 100 µM.

`Cc1cn(C2CC(OC(c3ccccc3)(c3ccccc3)c3ccccc3)C(COC(c3ccccc3)(c3ccccc3)c3ccccc3)O2)c(=O)[nH]c1=O` (centres undefined) was tested. Which TGI did it give?
The TGI was over 100 µM.

With `Cc1cc2c(cc1Cl)SC(NNc1cnc3ccccc3n1)=NS2(=O)=O` as the molecule, how does the TGI read?
The TGI was over 100 µM.

`O=CN(O)CC(=O)O` was tested. Which TGI did it give?
Its TGI is over 100 µM.

`O=S1(=O)c2ccccc2NC(=S)N1c1ccccc1` was tested. Which TGI did it give?
Its TGI is over 100 µM.

`COC(=O)C(CCSC)NC(=O)CSc1nnc(COc2ccc(Cl)cc2)n1-c1ccccc1` (centres undefined) was tested. Which TGI did it give?
The TGI was 33.1 µM.

`Cc1ccc(-n2cc(-c3ccc(Cl)cc3)c3c2N=CN2NC(c4ccco4)=NC32)cc1` (centres undefined) was tested. Which TGI did it give?
The TGI was over 100 µM.

For `COc1cc(/C=C/c2cc(=O)cc(/C=C/c3ccc(O)c(OC)c3)o2)ccc1O`, which TGI is on record?
The TGI was over 100 µM.

With `COn1cc(CO)c2ccccc21` as the molecule, how does the TGI read?
Its TGI is over 100 µM.

Which TGI does the source give for `COc1cc2nc(-c3c(F)cccc3F)n(Cc3c(F)cccc3F)c2cc1Cc1c(F)cccc1F` here?
The TGI was over 100 µM.

For `O=C(/C=C1\C[C@H]2C=Nc3ccccc3C(=O)N2C1)NCCCCCNC(=O)/C=C1\C[C@H]2C=Nc3ccccc3C(=O)N2C1`, which TGI is on record?
The TGI was 10.6 µM.

`NC(=S)N=Nc1c(O)cc(Nc2ccc(Cl)cc2Cl)c2ccccc12` was tested. Which TGI did it give?
The TGI was over 100 µM.

How did the TGI turn out when `CC[P+](C#Cc1ccccc1)(c1ccccc1)c1ccccc1` was run?
The TGI was 5.41 µM.

How did the TGI turn out when `Cc1ccc(C(=O)c2[nH]c(Nc3cc(C)ccn3)c(C(=S)Nc3ccccc3)c2N)cc1` was run?
Its TGI is over 100 µM.

With `CC(C)Cc1c(C#N)c(C#N)c(N)n1Cc1ccccc1` as the molecule, how does the TGI read?
The TGI was over 100 µM.

Which TGI does the source give for `CNc1ccc2c(c1)Cc1ccccc1-2` here?
Its TGI is over 100 µM.

With `O=c1cc(-c2ccccc2F)[nH]c2cc3c(cc12)OCO3` as the molecule, how does the TGI read?
Its TGI is over 27.1 µM.

How did the TGI turn out when `CC(C)(C)c1ccc2c(c1)OCc1n[nH]c(n1)COc1cc(C(C)(C)C)ccc1OCCOCCO2` was run?
The TGI was 16.7 µM.

For `COc1ccc(CCCCl)c(C2=NCCc3ccccc32)c1`, which TGI is on record?
Its TGI is over 100 µM.

`O=C(CN=C(CN(c1ccccc1)c1ccccc1)Oc1c(Cl)cc(Cl)cc1Cl)n1cnc2ccccc21` was tested. Which TGI did it give?
The TGI was over 100 µM.

How did the TGI turn out when `Nc1n[nH]c2ccccc12` was run?
The TGI was over 100 µM.

`COC(=O)[C@H]1C=C[C@H](OC2OC(COC(C)=O)C(OC(C)=O)C(OC(C)=O)C2OC(C)=O)n2c(=O)n(-c3ccccc3)c(=O)n21` (some centres undefined) was tested. Which TGI did it give?
Its TGI is 19.9 µM.

These molecules were tested on UACC-257 melanoma (assay: growth of human tumour cells (NCI), 48 h).

With `CC1(C)[C@@H]2C[C@H]1c1cnc(-c3ccccn3)cc1[C@H]2C(O)[C@@H]1c2cc(-c3ccccn3)ncc2[C@H]2C[C@@H]1C2(C)C` (some centres undefined) as the molecule, how does the TGI read?
Its TGI is 26 µM.

With `CCOC(=O)Cc1nn2c(=O)cc(C)nc2s1` as the molecule, how does the TGI read?
The TGI was over 100 µM.

With `COP(=O)(CC(=O)C1OC(OCc2ccccc2)C(OCc2ccccc2)C(OCc2ccccc2)C1OCc1ccccc1)OC` (centres undefined) as the molecule, how does the TGI read?
Its TGI is 43.9 µM.

For `OC(c1ccco1)C(F)(F)c1nc2ccccc2o1` (centres undefined), which TGI is on record?
The TGI was over 100 µM.

`CCOC1NC(=O)c2ccccc21` (centres undefined) was tested. Which TGI did it give?
Its TGI is over 100 µM.

With `CCN(C(=O)N[C@H](C(=O)N[C@@H](C)C(=O)OC)C(C)C)c1ccccc1` as the molecule, how does the TGI read?
Its TGI is 41.8 µM.

For `Cc1cn(C2CC(OC(c3ccccc3)(c3ccccc3)c3ccccc3)C(COC(c3ccccc3)(c3ccccc3)c3ccccc3)O2)c(=O)[nH]c1=O` (centres undefined), which TGI is on record?
The TGI was over 100 µM.

With `Cc1cc2c(cc1Cl)SC(NNc1cnc3ccccc3n1)=NS2(=O)=O` as the molecule, how does the TGI read?
The TGI was over 100 µM.

`O=CN(O)CC(=O)O` was tested. Which TGI did it give?
The TGI was over 100 µM.

How did the TGI turn out when `C(=N/Nc1ccc(-c2nc3ccccc3[nH]2)cc1)/c1c(-c2ccccc2)[nH]c2ccccc12` was run?
The TGI was over 100 µM.

How did the TGI turn out when `O=S1(=O)c2ccccc2NC(=S)N1c1ccccc1` was run?
The TGI was over 89.2 µM.

With `COC(=O)C(CCSC)NC(=O)CSc1nnc(COc2ccc(Cl)cc2)n1-c1ccccc1` (centres undefined) as the molecule, how does the TGI read?
The TGI was 31.2 µM.

`Cc1ccc(-n2cc(-c3ccc(Cl)cc3)c3c2N=CN2NC(c4ccco4)=NC32)cc1` (centres undefined) was tested. Which TGI did it give?
Its TGI is over 100 µM.

How did the TGI turn out when `COc1cc(/C=C/c2cc(=O)cc(/C=C/c3ccc(O)c(OC)c3)o2)ccc1O` was run?
The TGI was over 100 µM.

`COn1cc(CO)c2ccccc21` was tested. Which TGI did it give?
Its TGI is over 70.8 µM.

With `NNC(=O)c1cccc2c1Oc1ccccc1S2` as the molecule, how does the TGI read?
Its TGI is over 100 µM.

For `COc1cc2nc(-c3c(F)cccc3F)n(Cc3c(F)cccc3F)c2cc1Cc1c(F)cccc1F`, which TGI is on record?
The TGI was over 100 µM.

Which TGI does the source give for `O=C(/C=C1\C[C@H]2C=Nc3ccccc3C(=O)N2C1)NCCCCCNC(=O)/C=C1\C[C@H]2C=Nc3ccccc3C(=O)N2C1` here?
The TGI was 15.7 µM.

Which TGI does the source give for `NC(=S)N=Nc1c(O)cc(Nc2ccc(Cl)cc2Cl)c2ccccc12` here?
The TGI was over 100 µM.

Which TGI does the source give for `CC[P+](C#Cc1ccccc1)(c1ccccc1)c1ccccc1` here?
Its TGI is 4.11 µM.

How did the TGI turn out when `Cc1ccc(C(=O)c2[nH]c(Nc3cc(C)ccn3)c(C(=S)Nc3ccccc3)c2N)cc1` was run?
Its TGI is over 100 µM.

For `CC(C)Cc1c(C#N)c(C#N)c(N)n1Cc1ccccc1`, which TGI is on record?
The TGI was over 100 µM.

`CNc1ccc2c(c1)Cc1ccccc1-2` was tested. Which TGI did it give?
Its TGI is over 100 µM.

With `CCOC(=O)c1csc(NC(=O)CCCC#N)n1` as the molecule, how does the TGI read?
Its TGI is over 100 µM.

`O=c1cc(-c2ccccc2F)[nH]c2cc3c(cc12)OCO3` was tested. Which TGI did it give?
The TGI was over 77.5 µM.

Which TGI does the source give for `CC(C)(C)c1ccc2c(c1)OCc1n[nH]c(n1)COc1cc(C(C)(C)C)ccc1OCCOCCO2` here?
Its TGI is 8 µM.

For `COc1ccc(CCCCl)c(C2=NCCc3ccccc32)c1`, which TGI is on record?
The TGI was over 100 µM.

`O=C(CN=C(CN(c1ccccc1)c1ccccc1)Oc1c(Cl)cc(Cl)cc1Cl)n1cnc2ccccc21` was tested. Which TGI did it give?
The TGI was over 100 µM.

With `Nc1n[nH]c2ccccc12` as the molecule, how does the TGI read?
Its TGI is over 100 µM.

Which TGI does the source give for `COC(=O)[C@H]1C=C[C@H](OC2OC(COC(C)=O)C(OC(C)=O)C(OC(C)=O)C2OC(C)=O)n2c(=O)n(-c3ccccc3)c(=O)n21` (some centres undefined) here?
Its TGI is 20.6 µM.

These molecules were tested on MDA-MB-435 (assay: growth of human tumour cells (NCI), 48 h).

For `CC1(C)[C@@H]2C[C@H]1c1cnc(-c3ccccn3)cc1[C@H]2C(O)[C@@H]1c2cc(-c3ccccn3)ncc2[C@H]2C[C@@H]1C2(C)C` (some centres undefined), which TGI is on record?
Its TGI is over 38.5 µM.

For `CCOC(=O)Cc1nn2c(=O)cc(C)nc2s1`, which TGI is on record?
Its TGI is over 100 µM.

For `COP(=O)(CC(=O)C1OC(OCc2ccccc2)C(OCc2ccccc2)C(OCc2ccccc2)C1OCc1ccccc1)OC` (centres undefined), which TGI is on record?
The TGI was 27.9 µM.

`OC(c1ccco1)C(F)(F)c1nc2ccccc2o1` (centres undefined) was tested. Which TGI did it give?
The TGI was over 100 µM.

`CCOC1NC(=O)c2ccccc21` (centres undefined) was tested. Which TGI did it give?
The TGI was over 100 µM.

How did the TGI turn out when `CCN(C(=O)N[C@H](C(=O)N[C@@H](C)C(=O)OC)C(C)C)c1ccccc1` was run?
The TGI was 52.2 µM.

With `Cc1cn(C2CC(OC(c3ccccc3)(c3ccccc3)c3ccccc3)C(COC(c3ccccc3)(c3ccccc3)c3ccccc3)O2)c(=O)[nH]c1=O` (centres undefined) as the molecule, how does the TGI read?
The TGI was over 100 µM.

How did the TGI turn out when `Cc1cc2c(cc1Cl)SC(NNc1cnc3ccccc3n1)=NS2(=O)=O` was run?
The TGI was over 100 µM.

How did the TGI turn out when `O=CN(O)CC(=O)O` was run?
The TGI was over 100 µM.

Which TGI does the source give for `C(=N/Nc1ccc(-c2nc3ccccc3[nH]2)cc1)/c1c(-c2ccccc2)[nH]c2ccccc12` here?
Its TGI is 0.785 µM.

For `O=S1(=O)c2ccccc2NC(=S)N1c1ccccc1`, which TGI is on record?
Its TGI is over 100 µM.

For `COC(=O)C(CCSC)NC(=O)CSc1nnc(COc2ccc(Cl)cc2)n1-c1ccccc1` (centres undefined), which TGI is on record?
Its TGI is 34.3 µM.

How did the TGI turn out when `Cc1ccc(-n2cc(-c3ccc(Cl)cc3)c3c2N=CN2NC(c4ccco4)=NC32)cc1` (centres undefined) was run?
Its TGI is over 100 µM.

`COc1cc(/C=C/c2cc(=O)cc(/C=C/c3ccc(O)c(OC)c3)o2)ccc1O` was tested. Which TGI did it give?
Its TGI is over 100 µM.

Which TGI does the source give for `COn1cc(CO)c2ccccc21` here?
The TGI was over 100 µM.

With `NNC(=O)c1cccc2c1Oc1ccccc1S2` as the molecule, how does the TGI read?
Its TGI is over 100 µM.

`COc1cc2nc(-c3c(F)cccc3F)n(Cc3c(F)cccc3F)c2cc1Cc1c(F)cccc1F` was tested. Which TGI did it give?
The TGI was over 100 µM.

Which TGI does the source give for `O=C(/C=C1\C[C@H]2C=Nc3ccccc3C(=O)N2C1)NCCCCCNC(=O)/C=C1\C[C@H]2C=Nc3ccccc3C(=O)N2C1` here?
The TGI was 19 µM.
